Measured values reported in patent publication US20200079765A1, “SUBSTITUTED HETEROARYL PYRROLONES AND SALTS THEREOF AND USE THEREOF AS HERBICIDAL ACTIVE SUBSTANCES” (Bayer CropScience Aktiengesellschaft, priority 2016, published 2020).

Tests used:
Type in all cases: in vivo
[1] = tested on: Ipomoea purpurea; assay: Post-emergence herbicidal action (Experimental Part 1, A); settings: application rate 1280 g/ha, rated visually after about 3 weeks
Method: (§1) Seeds of monocotyledonous and dicotyledonous weeds and crop plants were placed in sandy loam in plastic or wood-fiber pots, covered with soil and cultivated in a greenhouse under controlled growth conditions. 2 to 3 weeks after sowing, the test plants were treated at the one-leaf stage. The compounds of the invention, formulated in the form of wettable powders (WP) or as emulsion concentrates (EC), were then sprayed onto the green parts of the plants as aqueous suspension or emulsion with addition of 0.5% additive at a water application rate of 600 l/ha (converted). After the test plants had been kept in the greenhouse under optimum growth conditions for about 3 weeks, the activity of the preparations was rated visually in comparison to untreated controls. For example, 100% activity=the plants have died, 0% activity=like control plants. Tables A1 to A14 below show the effects of selected compounds of the general formula (I) according to Tables I.1 to I.116 on various harmful plants and an application rate corresponding to 1280 g/ha or 320 g/ha, which were obtained by the experimental procedure mentioned above.

[2] = tested on: Avena fatua; assay: as above; settings: rated visually after about 3 weeks
Method: as §1

[3] = tested on: Amaranthus retroflexus; assay: as above; settings: about 3 weeks after treatment, 100% = plants have died, 0% = like control plants
Method: as §1

[4] = tested on: Abutilon theophrasti; assay: as above; settings: about 3 weeks after treatment, 100% = plants have died, 0% = like control plants
Method: as §1

[5] = tested on: Hordeum murinum; assay: as above; settings: application rate 1280 g/ha, rated visually after about 3 weeks
Method: as §1

[6] = tested on: Echinochloa crus-galli; assay: as above; settings: about 3 weeks after treatment, 100% = plants have died, 0% = like control plants
Method: as §1

[7] = tested on: Matricaria inodora; assay: as above; settings: rated visually after about 3 weeks
Method: as §1

[8] = tested on: Polygonum convolvulus; assay: as above; settings: rated visually after about 3 weeks
Method: as §1

[9] = tested on: Veronica persica; assay: as above; settings: application rate 1280 g/ha, about 3 weeks after treatment, 100% = plants have died, 0% = like control plants
Method: as §1

[10] = tested on: Setaria viridis; assay: as above; settings: about 3 weeks after treatment, 100% = plants have died, 0% = like control plants
Method: as §1

[11] = tested on: Stellaria media; assay: as above; settings: rated visually after about 3 weeks
Method: as §1

[12] = tested on: Lolium rigidum; assay: as above; settings: application rate 1280 g/ha, rated visually after about 3 weeks
Method: as §1

[13] = tested on: Alopecurus myosuroides; assay: as above; settings: about 3 weeks after treatment, 100% = plants have died, 0% = like control plants
Method: as §1

[14] = tested on: Viola tricolor; assay: as above; settings: rated visually after about 3 weeks
Method: as §1

[15] = tested on: Ipomoea purpurea; assay: Pre-emergence herbicidal action (Experimental Part 1, B); settings: application rate 1280 g/ha, scored visually after about 3 weeks
Text: (§2) Seeds of monocotyledonous and dicotyledonous weed plants and crop plants were placed in plastic or organic planting pots and covered with soil. The compounds of the invention, formulated in the form of wettable powders (WP) or as emulsion concentrates (EC), were then applied onto the surface of the covering soil as aqueous suspension or emulsion with addition of 0.5% additive at a water application rate of 600 l/ha (converted). After the treatment, the pots were placed in a greenhouse and kept under good growth conditions for the test plants. After about 3 weeks, the effect of the preparations was scored visually in comparison with untreated controls as percentages. For example, 100% activity=the plants have died, 0% activity=like control plants. Tables B1 to B14 below show the effects of selected compounds of the general formula (I) according to Tables I.1 to I.116 on various harmful plants and an application rate corresponding to 1280 g/ha or 320 g/ha, which were obtained by the experimental procedure mentioned above.

[16] = tested on: Avena fatua; assay: as above; settings: scored visually after about 3 weeks
Text: as §2

[17] = tested on: Amaranthus retroflexus; assay: as above; settings: scored visually after about 3 weeks
Text: as §2

[18] = tested on: Abutilon theophrasti; assay: as above; settings: scored visually after about 3 weeks
Text: as §2

[19] = tested on: Hordeum murinum; assay: as above; settings: scored visually after about 3 weeks
Text: as §2

[20] = tested on: Echinochloa crus-galli; assay: as above; settings: application rate 1280 g/ha, scored visually after about 3 weeks
Text: as §2

[21] = tested on: Matricaria inodora; assay: as above; settings: scored visually after about 3 weeks
Text: as §2

[22] = tested on: Polygonum convolvulus; assay: as above; settings: scored visually after about 3 weeks
Text: as §2

[23] = tested on: Veronica persica; assay: as above; settings: application rate 1280 g/ha, scored visually after about 3 weeks
Text: as §2

[24] = tested on: Setaria viridis; assay: as above; settings: scored visually after about 3 weeks
Text: as §2

[25] = tested on: Stellaria media; assay: as above; settings: scored visually after about 3 weeks
Text: as §2

[26] = tested on: Lolium rigidum; assay: as above; settings: application rate 1280 g/ha, scored visually after about 3 weeks
Text: as §2

[27] = tested on: Alopecurus myosuroides; assay: as above; settings: scored visually after about 3 weeks
Text: as §2

[28] = tested on: Viola tricolor; assay: as above; settings: scored visually after about 3 weeks
Text: as §2

CC(=O)OC1C(C)=CC(=O)N1c1cc(C(C)(C)C)on1 (stereo not drawn) [I.3-162]
Ipomoea purpurea, herbicidal activity [1]: 90% | Avena fatua, herbicidal activity ([2]; application rate 320 g/ha): 90% | Avena fatua, herbicidal activity ([2]; application rate 1280 g/ha): 90% | herbicidal activity on Amaranthus retroflexus (visual rating vs untreated controls) ([3]; application rate 320 g/ha): 90% | herbicidal activity on Amaranthus retroflexus (visual rating vs untreated controls) ([3]; application rate 1280 g/ha): 100% | herbicidal activity on Abutilon theophrasti (visual rating vs untreated controls) ([4]; application rate 320 g/ha): 100% | herbicidal activity on Abutilon theophrasti (visual rating vs untreated controls) ([4]; application rate 1280 g/ha): 100% | Hordeum murinum, herbicidal activity [5]: 100% | herbicidal activity on Echinochloa crus-galli (visual rating vs untreated controls) ([6]; application rate 320 g/ha): 90% | herbicidal activity on Echinochloa crus-galli (visual rating vs untreated controls) ([6]; application rate 1280 g/ha): 100% | Matricaria inodora, herbicidal activity ([7]; application rate 320 g/ha): 100% | Matricaria inodora, herbicidal activity ([7]; application rate 1280 g/ha): 100% | Polygonum convolvulus, herbicidal activity ([8]; application rate 320 g/ha): 100% | Polygonum convolvulus, herbicidal activity ([8]; application rate 1280 g/ha): 100% | herbicidal activity on Veronica persica (visual rating vs untreated controls) [9]: 100% | herbicidal activity on Setaria viridis (visual rating vs untreated controls) ([10]; application rate 320 g/ha): 100% | herbicidal activity on Setaria viridis (visual rating vs untreated controls) ([10]; application rate 1280 g/ha): 100% | Stellaria media, herbicidal activity ([11]; application rate 320 g/ha): 100% | Stellaria media, herbicidal activity ([11]; application rate 1280 g/ha): 100% | Lolium rigidum, herbicidal activity [12]: 90% | herbicidal activity on Alopecurus myosuroides (visual rating vs untreated controls) ([13]; application rate 320 g/ha): 100% | herbicidal activity on Alopecurus myosuroides (visual rating vs untreated controls) ([13]; application rate 1280 g/ha): 100% | Viola tricolor, herbicidal activity ([14]; application rate 320 g/ha): 100% | Viola tricolor, herbicidal activity ([14]; application rate 1280 g/ha): 100% | Ipomoea purpurea, herbicidal activity [15]: 90% | Avena fatua, herbicidal activity ([16]; application rate 320 g/ha): 90% | Avena fatua, herbicidal activity ([16]; application rate 1280 g/ha): 90% | Amaranthus retroflexus, herbicidal activity ([17]; application rate 320 g/ha): 100% | Amaranthus retroflexus, herbicidal activity ([17]; application rate 1280 g/ha): 100% | Abutilon theophrasti, herbicidal activity ([18]; application rate 320 g/ha): 100% | Abutilon theophrasti, herbicidal activity ([18]; application rate 1280 g/ha): 100% | Hordeum murinum, herbicidal activity ([19]; application rate 320 g/ha): 90% | Hordeum murinum, herbicidal activity ([19]; application rate 1280 g/ha): 100% | Echinochloa crus-galli, herbicidal activity [20]: 100% | Matricaria inodora, herbicidal activity ([21]; application rate 320 g/ha): 100% | Matricaria inodora, herbicidal activity ([21]; application rate 1280 g/ha): 100% | Polygonum convolvulus, herbicidal activity ([22]; application rate 320 g/ha): 100% | Polygonum convolvulus, herbicidal activity ([22]; application rate 1280 g/ha): 100% | Veronica persica, herbicidal activity [23]: 100% | Setaria viridis, herbicidal activity ([24]; application rate 320 g/ha): 100% | Setaria viridis, herbicidal activity ([24]; application rate 1280 g/ha): 100% | Stellaria media, herbicidal activity ([25]; application rate 320 g/ha): 90% | Stellaria media, herbicidal activity ([25]; application rate 1280 g/ha): 100% | Lolium rigidum, herbicidal activity [26]: 90% | Alopecurus myosuroides, herbicidal activity ([27]; application rate 320 g/ha): 90% | Alopecurus myosuroides, herbicidal activity ([27]; application rate 1280 g/ha): 90% | Viola tricolor, herbicidal activity ([28]; application rate 320 g/ha): 100% | Viola tricolor, herbicidal activity ([28]; application rate 1280 g/ha): 100%
